This is an account of results in ChEMBL document CHEMBL3272160, “Synthesis and some pharmacological properties of [1-(L-2-hydroxy-3-mercaptopropanoic acid), 4-threonine]oxytocin (hydroxy [4-thr]oxytocin), a peptide with strikingly high oxytocic potency and of [1-(L-2-hydroxy-3-mercaptopropanoic acid)]oxytocin (hydroxy-oxytocin)” (J Med Chem, 1976).

*1 amine or outer side, *2 acyl side, *3 side chain or, on linkers, in order; H or OH if unused. Where a SMILES comes first, the peptide text is derived from it. Bridges are numbered along the chain shown (N, C = ends). [ ]: non-standard residue; d: D form. Abu(4-yl) = O=C([C@H](CC[*:3])N[*:1])[*:2]; X1 = O=C([C@@H](O)CS[*:2])[*:1]; X2 = O=C(CCC[*:2])[*:1]; Mpa = O=C(O)CCS Bounds are passed on as bounds.

The target in series [1] is T1, Oxytocin receptor (Rattus norvegicus) (UniProt P70536).
T1 sequence (whole entry): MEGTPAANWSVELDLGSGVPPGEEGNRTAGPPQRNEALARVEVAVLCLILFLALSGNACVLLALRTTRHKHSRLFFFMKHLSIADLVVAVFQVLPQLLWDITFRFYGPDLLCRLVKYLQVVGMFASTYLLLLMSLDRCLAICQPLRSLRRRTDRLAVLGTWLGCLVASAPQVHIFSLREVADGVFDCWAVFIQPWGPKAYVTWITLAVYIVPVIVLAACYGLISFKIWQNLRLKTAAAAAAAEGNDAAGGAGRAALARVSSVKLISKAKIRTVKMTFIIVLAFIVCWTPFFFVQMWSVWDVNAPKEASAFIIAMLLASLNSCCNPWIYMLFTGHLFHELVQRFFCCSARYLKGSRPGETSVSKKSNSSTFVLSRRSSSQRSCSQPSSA
Kind of series: Activity at oxytocin receptor in rat uterus in presence of 0.5 mM Mg2+. The format is tissue-based.

Series [2] deals with T1, Oxytocin receptor (Rattus norvegicus). Description: Activity at oxytocin receptor in rat uterus. The format is tissue-based.
For series [3], the species on record is Oryctolagus cuniculus. Kind of series: Oxytocic activity in rabbit assessed as milk ejection. The format is functional.
The species entered for series [4] is Rattus norvegicus. Kind of series: Vasopressor activity in rat. The format is ADME, organism-based. The conditions noted are these: in vivo.
Series [5] is filed under the species Rattus norvegicus. Description: Antidiuretic activity in rat. The conditions noted are these: in vivo. The format is ADME, organism-based, Urine.
The nature of series [6]: Ratio of activity at oxytocin receptor in rat uterus to vasopressor activity in rat.
Series [7] is described as follows: Ratio of activity at oxytocin receptor in rat uterus to antidiuretic activity in rat. Details: species or system Urine.
Series [8] addresses T1, Oxytocin receptor (Rattus norvegicus). Description: Activity at oxytocin receptor in rat uterus relative to oxytocin. The format is tissue-based.
Series [9] shares this target. Kind of series: Activity at oxytocin receptor in rat mammary strip.
Series [10] is filed under the species Rattus norvegicus. Description: Oxytocic activity in rat assessed as milk ejection. The format is functional.

As to `CC[C@H](C)[C@@H]1NC(=O)[C@H](Cc2ccc(O)cc2)NC(=O)CCSSC[C@H](C(=O)N2CCC[C@H]2C(=O)N[C@@H](CC(C)C)C(=O)NCC(N)=O)NC(=O)[C@H](CC(N)=O)NC(=O)[C@H](CCC(N)=O)NC1=O`, the Activity in series [1] is 760 U/mg.
In the case of `CC[C@H](C)[C@@H]1NC(=O)[C@H](Cc2ccc(O)cc2)NC(=O)[C@@H](N)CSSC[C@@H](C(=O)N2CCC[C@H]2C(=O)N[C@@H](CC(C)C)C(=O)NCC(N)=O)NC(=O)[C@H](CC(N)=O)NC(=O)[C@H]([C@@H](C)O)NC1=O` (H-CYITNCPLG-NH2; disulfide 1-6), the Activity was found to be 923 U/mg in series [2]; 719 U/mg in series [1]; 543 U/mg in series [3]; 0.43 U/mg in series [4]; 1.8 U/mg in series [5]. The Ratio in series [6] is 2146; in series [7], 513; in series [8], greater than 4.
As to `CC[C@H](C)[C@@H]1NC(=O)[C@H](Cc2ccc(O)cc2)NC(=O)[C@@H](N)CCSC[C@@H](C(=O)N2CCC[C@H]2C(=O)N[C@@H](CC(C)C)C(=O)NCC(N)=O)NC(=O)[C@H](CC(N)=O)NC(=O)[C@H](CCC(N)=O)NC1=O` (H-[Abu(4-yl)]YIQNCPLG-NH2; thioether 1-6), the Activity in series [2] worked out at 734 U/mg; in [9], 177 U/mg; in series [4] it was 2.95 U/mg; in [5], 9.3 U/mg. In addition, the results for the Ratio in series [6] and in series [7] were 249 and 79, respectively.
On to `CC[C@H](C)[C@@H]1NC(=O)[C@H](Cc2ccc(O)cc2)NC(=O)[C@@H](O)CSSC[C@@H](C(=O)N2CCC[C@H]2C(=O)N[C@@H](CC(C)C)C(=O)NCC(N)=O)NC(=O)[C@H](CC(N)=O)NC(=O)[C@H](CCC(N)=O)NC1=O` (YIQNCPLG-NH2; linker N-5 via X1), for which the Activity was 1280 U/mg in series [2]; 868 U/mg in series [1]; 363 U/mg in [9]; 694 U/mg in [10]; 14.7 U/mg in series [4]; 16.6 U/mg in series [5]. For the same compound, the Ratio in series [6] was determined as 50; in series [7], 77; in [8] it was 2.45.
On to `CC[C@H](C)[C@@H]1NC(=O)[C@H](Cc2ccc(O)cc2)NC(=O)CCCSC[C@@H](C(=O)N2CCC[C@H]2C(=O)N[C@@H](CC(C)C)C(=O)NCC(N)=O)NC(=O)[C@H](CC(N)=O)NC(=O)[C@H](CCC(N)=O)NC1=O` (YIQNCPLG-NH2; linker N-5 via X2), for which the Activity came to 1900 U/mg in series [2]; 921 U/mg in [1]; 581 U/mg in series [9]; 17.5 U/mg in series [4]; 24.1 U/mg in [5]. The Ratio in series [6] turned out to be 108; in [7], 79; in series [8] it was 4.
Consider `CC[C@H](C)[C@@H]1NC(=O)[C@H](Cc2ccc(O)cc2)NC(=O)[C@@H](O)CSSC[C@@H](C(=O)N2CCC[C@H]2C(=O)N[C@@H](CC(C)C)C(=O)NCC(N)=O)NC(=O)[C@H](CC(N)=O)NC(=O)[C@H]([C@@H](C)O)NC1=O` (YITNCPLG-NH2; linker N-5 via X1), for which the Activity in [2] is 4180 U/mg; in series [1] it was 937 U/mg; in [9], 378 U/mg; in series [10] it was 808 U/mg; in [4], 4.92 U/mg; in series [5] it was 5.3 U/mg. In addition, the Ratio is 849 in series [6], 788 in [7] and 8 in series [8].
For the compound `CC[C@H](C)[C@@H]1NC(=O)[C@H](Cc2ccc(O)cc2)NC(=O)CCSSC[C@@H](C(=O)N2CCC[C@H]2C(=O)N[C@@H](CC(C)C)C(=O)NCC(N)=O)NC(=O)[C@H](CC(N)=O)NC(=O)[C@H]([C@@H](C)O)NC1=O` ([Mpa]YITNCPLG-NH2; disulfide 1-6), the Activity in [2] is 149 U/mg; in series [1], 242 U/mg; in series [3] it was 385 U/mg; in series [4], less than 0.1 U/mg; in [5], 0.9 U/mg. Also, the Ratio in series [7] is on record as 165.
For `CC[C@H](C)[C@@H]1NC(=O)[C@H](Cc2ccc(O)cc2)NC(=O)CCSSC[C@@H](C(=O)N2CCC[C@H]2C(=O)N[C@@H](CC(C)C)C(=O)NCC(N)=O)NC(=O)[C@H](CC(N)=O)NC(=O)[C@H](CCC(N)=O)NC1=O` [DEMOXYTOCIN], the values for the Activity in series [3], in series [4] and in [5] were 541 U/mg, 1.44 U/mg and 19 U/mg, respectively. The results for the Ratio in [6] and in series [7] were 558 and 42, respectively.
`CC[C@H](C)[C@@H]1NC(=O)[C@H](Cc2ccc(O)cc2)NC(=O)[C@@H](N)CSSC[C@@H](C(=O)N2CCC[C@H]2C(=O)N[C@@H](CC(C)C)C(=O)NCC(N)=O)NC(=O)[C@H](CC(N)=O)NC(=O)[C@H](CCC(N)=O)NC1=O` [OXYTOCIN]: the Activity came to 520 U/mg in series [2], 486 U/mg in series [1], 474 U/mg in series [3] and 4 U/mg in series [5]. The Ratio in series [8] was greater than 7.
